Results on four compounds are retold here after patent US20020058795A1, “HYDROPHOBIC GLYCOSYLAMINE DERIVATIVES, COMPOSITIONS, AND METHODS FOR USE” (priority 1997, published 2002).

The subject of data set [1] is established cell lines and primary neuronal cultures. Conditions: cited from earlier work.
For a further data set, the system named is tumors. The experiment in a line: In vivo anti-tumor efficacy, intratumoral IL-2 plasmid compositions. The arrangement: species or system mice. Conditions: for growth of tumors in mice: compositions with IL-2 plasmid DNA and DOPE, given directly into the tumor; for size of tumors, average: with DNA and DOPE; for size of tumors, average / reduction of growth rates of tumors: 1:2 -/+ charge ratio; for reduction of growth rates of tumors: with IL-2 plasmid DNA and DOPE. An excerpt: Compositions comprising HGDs of the invention, plasmid DNA comprising an IL-2 gene, and DOPE efficaciously retarded the growth of tumors in mice. These model-tumor studies involved implanting a tumor into mice, administering a composition of the invention directly into the tumor, and monitoring the growth of tumors in the mice. A protocol for such a procedure is taught in U.S. application Ser. No. 60/039,709, Raiston et al., “IL-2 Gene Expression and Delivery Systems and Uses,” filed Feb. 10, 1997, incorportated herein by reference in its entirety including any figures, tables, and drawings.

Data set [2] concerns cells. The experiment in a line: Cell toxicity by total cellular protein synthesis (Bio-Rad Protein Assay) or cell proliferation (XTT). Type of data set: cell-based. An excerpt:
Compositions comprising HGDs of the invention, plasmid DNA, and a co-lipid such as DOPE or cholesterol were not appreciably toxic to cells. Toxicity measurements were based upon total cellular protein synthesis (Bio-Rad Protein Assay) or cell proliferation (Cell-Proliferation Kit-XTT, Boehringer Mannheim).

The subject of data set [3] is cells. The experiment in a line: Transfection efficiency: IL-2 expressed by cells given HGD/IL-2 plasmid compositions. Format: cell-based. To be noted: for IL-2 expression by cells: 0.2 μg IL-2 plasmid, cholesterol or DOPE co-lipid, 48 hours. On the procedure:
HGDs of the invention formed DNA/HGD complexes that efficiently delivered DNA plasmids to cells. The transfection efficiency was measured after compositions comprising HGDs of the invention, 0.2 μg of DNA plasmids comprising a gene encoding IL-2, and either cholesterol or DOPE as a co-lipid were incubated with cells for 48 hours. The amount of IL-2 expressed by cells administered the compositions was quantified using by an assay disclosed in U.S. application Ser. No. 60/039,709, Raiston et al., “IL-2 Gene Expression and Delivery Systems and Uses,” filed Feb. 10, 1997, incorportated herein by reference in its entirety including any figures, tables, and drawings.

For a further data set, the system named is SCCVII tumors. As to the kind of experiment: CAT reporter gene expression after injection of lipid/DNA complexes into tumors. Format: in vivo. Conditions: complex with CAT DNA plasmid injected into SCCVII tumors; 10% lactose. Here is the method: A variety of HGD/DNA complexes were injected into SCCVII tumors. […] Other lipophilic molecules included DOTMA complexed with cholesterol, DOTIM complexed with DOPE and cholesterol, MMCE complexed with DOPE and cholesterol and DiP-PE, EPMC complexed with DOPE and cholesterol. All complexes comprised 10% lactose.

As for `CCCCCCCCCCCCCCCC(=O)OCC(COP(=O)(O)OCCNC(=O)C(CCCNCCCN)NCCCN)OC(=O)CCCCCCCCCCCCCCC` (stereo not drawn) [DPPES], the “transfection efficiency relative to calcium phosphate” value in data set [1] is reported as “more efficiently than calcium phosphate by at least two orders of magnitude”.
Regarding `CCCCCCCCCCCCCCCCO[C@@H]1OC(CO)[C@@H](O)C(O)C1N` (stereo partly drawn) [MPG, 1-mono-palmityl-glucosamine], in the data set on tumors, the “growth of tumors in mice” value is reported as “significantly reduced the growth of tumors”. Also, the “size of tumors, average” value in the data set on tumors (thirteen days, untreated approximately 1600) was “less than 1200 cubic millimeters”. The “reduction of growth rates of tumors” value in the data set on tumors (after thirteen days) is given as “more than 25%”. For the same compound, the “health of cells compared with LipofectAMINE liposome compositions” value in the data set on cells [2] was “healthier”.
On to `CCCCCCCCCCCCCCCCCCN(CCCCCCCCCCCCCCCCCC)C(=O)CNC(=O)C(CCCNCCCN)NCCCN` (stereo not drawn) [DOGS], for which, in data set [1], the “transfection efficiency relative to calcium phosphate” value is listed as “more efficiently than calcium phosphate by at least two orders of magnitude”.
On to `CCCCCCCC/C=C\CCCCCCCCO[C@@H]1OC(CO)[C@@H](O)C(O)C1N` (stereo partly drawn) [MOG, 1-mono-oleyl-glucosamine], for which the “growth of tumors in mice” value with tumors is on record as “significantly reduced the growth of tumors”. The “size of tumors, average” value in the data set on tumors (nine days, untreated 600) is “less than 400 cubic millimeters”. Also, the “reduction of growth rates of tumors” value in the data set on tumors (after nine days) is “more than 30%”. Moreover, the “IL-2 expression compared with DOTMA liposomes” value with cells [3] (1:3 charge ratio) is recorded as “as large as the amount of IL-2 expressed by cells administered liposomes comprising an efficient delivery lipid, DOTMA”. Moreover, the “IL-2 expression by cells” value is on record as “not significantly expressed” in the data set on cells [3] (-/+ charge ratio 1:0.5) and “significantly expressed” with cells [3] (-/+ charge ratio 1:3). In addition, the “expression of the CAT reporter gene” value with SCCVII tumors is given as “highest expression of the CAT reporter gene of any of the lipophilic molecule/DNA complexes tested”. Further, in the data set with cells [2] (MOG composition contains DOPE, compared with LipofectAMINE composition), the “expression and recovery of total protein, of normal protein levels” value is reported as “more than 75%”. For the same compound, in the data set with cells [2], the “health of cells compared with LipofectAMINE liposome compositions” value was “healthier”.
